The structures appear in SMILES notation. Entries after “also recorded” stand apart in the source; their conditions may differ.

The values that follow come from US11548850B2, “Development of a cofilin inhibitor for the treatment of hemorrhagic brain injury-induced neuroinflammation” (The University of Toledo, priority 2019, dated 2023).

One test has as its system TNF-α. Kind of test: TNF-α ELISA in LPS-challenged HMC3 cells. The conditions noted are these: SZ-3 10 μM and 5 μM. The test is classed as cell-based, human. The method, then:
(§1) Cultured HMC3 cells were challenged with 0.1 μg/mL of LPS and treated with different concentrations of SZ-3 concurrently. At the end of the experiment cells were harvested for MTT by CellTiter-Glo Luminescent assay (FIG. 9A), Griess assay for NO release (FIG. 9B), and TNF-α by ELISA (FIG. 9C).
After hemorrhage, activated microglia release proinflammatory mediators such as cytokines, chemokines, and nitric oxide (NO) leading to secondary injury which may be worse than the initial insult and may result in severe neurological deficits and death. In order to test whether the synthesized compound will reduce or stop microglial activation and inflammation after hemorrhage, whether the compound poses toxicity to microglia was first assessed. […]
Next, a NO release assay was performed to determine if SZ-3 can reduce the NO release. […] Next, whether the major inflammatory cytokine TNF-α is reduced with the SZ-3 treatment was evaluated. […]
HMC3 cells (30,000 cells/well in a 96-well plate) were stimulated by LPS ([…]), then treated with DMSO or different concentrations of drug 3 h later. The supernatants were collected after 24 h, and the concentrations of TNF-α were measured using enzyme-linked immunosorbent assay (ELISA) according to the kit's instructions (R&D Systems, Inc.).

Test [1] has as its system cofilin. Kind of test: WB analysis of cofilin expression in thrombin-challenged SHSY cells. It counts as cell-based, human. The conditions noted are these: thrombin 100 U/ml, SZ-3 5 μM after 3 h, WB after 24 h. The method, then: The synthesized SZ-3 compound was tested for neuroprotective properties in cell-based models using a neuroblastoma cell line (SHSY) and thrombin as a stressor. Thrombin was used as a cell death inducer in cell-based models for hemorrhagic brain injury. SHSY cells were challenged by 100 U/ml thrombin and after 3 hrs treated with different concentrations of synthesized compounds. […] Cell death is observed through fluorescence.
Cells were harvested and washed with ice-cold lysis buffer (250 mM sucrose, 1.5 mM MgCl2, 10 mM KCl, 20 mM HEPES 7.6 pH, 1 mM of dithiothreitol, 1 mM phenylmethylsulfonyl fluoride, 50 mM NaF, 10 mM sodium orthovanadate, 20 mM sodium pyrophosphate, and protease inhibitors) for 15 min then supplemented with 5% of Nonidet P-40 for 2 min. Cytosolic fraction was collected from the supernatant after centrifugation at 14,000 g for 10 min. Bradford reagent (Bio-Rad Laboratories) was used to determine the protein concentrations, and equal amounts of samples were loaded onto 10-15% SDS-polyacrylamide gels, separated by electrophoresis, and transferred to PVDF membranes. […] Glyceraldehyde 3-phosphate dehydrogenase (GAPDH) or beta-actin were used as the loading control, and band intensity analyzed using Bio-Rad Chemi-Doc XRS Image Lab Software.

In test [2] the target is cofilin (Homo sapiens, UniProt P23528). Kind of test: In vitro F-actin depolymerization assay. Set-up: purchased Cytoskeleton, Inc. The conditions noted are these: SZ-3 5 μM, cofilin 0.25 μM, 30 min, rabbit muscle actin, SiR-actin probe. It counts as biochemical. The method, then: The inhibitory effect of SZ-3 was tested using an F-actin depolymerization assay. Rabbit muscle actin (Cytoskeleton, Inc.) was reconstituted with general actin and incubated on ice for 30 min to depolymerize any existing actin oligomers. Cofilin (Cytoskeleton, Inc.) at 0.25 μM and SZ-3 (5 μM) were added together to the corresponding vials and incubated for 30 min to ensure cofilin depolymerization and efficacy of the SZ-3. SiR-actin probe (Cytoskeleton, Inc.) was added at 50 nM and incubated for 1 h to visualize actin filaments. Finally, 5-10 μl of each group was added to a slide and imaged with fluorescent microscope at 652 nm.
cofilin (Homo sapiens, UniProt P23528), sequence (P23528 whole entry): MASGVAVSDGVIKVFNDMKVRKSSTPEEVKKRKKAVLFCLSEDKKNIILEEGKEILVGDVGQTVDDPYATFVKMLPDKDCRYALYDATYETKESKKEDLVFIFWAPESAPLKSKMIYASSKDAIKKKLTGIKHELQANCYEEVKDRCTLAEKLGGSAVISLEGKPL
Cofilin inhibition with SZ-3 was tested using an f-actin depolymerization high-throughput screening assay.
SZ-3 inhibitory effect on cofilin was tested using F-actin depolymerization assay. Briefly, rabbit muscle actin (Cytoskeleton, Inc.) was reconstituted with general actin buffer to 40 μM (stock) and incubated on ice for 30 min to depolymerize any existing actin oligomers. Next, actin stock solution was further diluted to a 1 μM working solution and then polymerized into filaments with the addition of 1/10 th the volume of actin polymerization buffer (Cytoskeleton, Inc.). The mix was incubated at room temperature for 1 h to ensure optimum polymerization. […]

The subject of test [3] is NO release from HMC3 cells. Kind of test: Griess assay for NO release from LPS-challenged HMC3 cells. It counts as cell-based, human. The method, then:
as §1
After hemorrhage, activated microglia release proinflammatory mediators such as cytokines, chemokines, and nitric oxide (NO) leading to secondary injury which may be worse than the initial insult and may result in severe neurological deficits and death. In order to test whether the synthesized compound will reduce or stop microglial activation and inflammation after hemorrhage, whether the compound poses toxicity to microglia was first assessed. Human microglial cell line (HMC3) was challenged or activated with lipopolysaccharide (LPS) ([…]) and treated with different concentrations of the SZ-3 (10 and 5 μM) concurrently. CellTiter-Glo luminescent assay was used for cell viability; Griess reagent assay was used for NO release and ELISA was used for TNF-α estimations.
Next, a NO release assay was performed to determine if SZ-3 can reduce the NO release. […] Next, whether the major inflammatory cytokine TNF-α is reduced with the SZ-3 treatment was evaluated. As a consequence of microglial activation, TNF-α levels are increased, and the same pattern was observed when cells were challenged with LPS. There was a significant increase in TNF-α after LPS challenge.
NO was indirectly assayed through the measurement of nitrite by mixing a sample of culture medium with an equal volume of Griess reagent (0.3% naphthylethylenediamine dihydrochloride, 3% sulfanilamide, 8% phosphoric acid) and reading at 540 nm.

Regarding `CC(C)(C)c1ccc(O)c(CN(Cc2cc(C(C)(C)C)ccc2O)C2CCC(NC(N)=O)CC2)c1` (stereo not drawn) [SZ-3, 4-{bis[(5-tert-butyl-2-hydroxyphenyl)methyl]amino}cyclohexyl urea], the TNF-α levels entry in the test on TNF-α was “significantly reduced TNF-α levels; also recorded: significantly reduced NO and TNF-α release”. In the test on cofilin [1], the cofilin expression result is on record as “significantly reduced cofilin expression”. For the same molecule, at cofilin [2], the “severing and depolymerizing activity of cofilin on F-actin” value is “prevented the severing and depolymerizing activity of cofilin; also recorded: binds to cofilin”. In addition, the NO release entry in test [3] (LPS 0.1 μg/mL, different concentrations of SZ-3) was “significantly reduced NO”; in test [3] (LPS, SZ-3 5 μM, p<0.001) it was “significantly reduced NO release”; in test [3] (LPS, SZ-3 10 μM), “significance was at p<0.01”.
